Laboratory results: patent US10351598B2, “Peptide with anti-obesity and anti-diabetic efficacy and use thereof” (CAREGEN CO., LTD., priority 2016, dated 2019)
Where “and” joins values, the source holds several entries; their conditions need not be identical. Identical values can stand only once.

What was measured:
[1] = system: 3T3-L1 cells; assay: Oil red O staining (lipid accumulation inhibition); assay type: cell-based; details: day 9 of differentiation induction
Description: In order to measure the lipid accumulation inhibitory effect by the peptides of the present invention, 3T3-L1 cells were seeded in 24-well plate at 2×10^4 cells/well, followed by culture, and then the medium was exchanged with a differentiation medium containing 10 ug/ml insulin, 0.1 uM dexamethasone, and 0.5 uM IBMX, followed by treatment with the peptides having different concentrations.
Thereafter, the medium was exchanged into a medium containing 10 ug/ml insulin every two days, and on day 9 of differentiation induction, an oil-red-red O staining assay was conducted.
The cells were washed with PBS, immobilized by the treatment with 4% para-form aldehyde for 10 minutes, washed with distilled water, and then cultured in 60% isopropanol for 5-10 minutes. The immobilized cells were stained with an oil red solution [1% Oil Red in isopropanol was diluted in dH2O in ratio of 6:4 (vol/vol)] for 30 minutes, and then again washed with PBS. The stained cells were observed by an optical microscope, followed by washing with distilled water, and 1 ml of 100% isopropanol was added thereto, followed by stirring at 4° C. The next day, quantification was conducted at 510 nm.

[2] = system: mouse adipose tissue; assay: Glycerol assay (lipolysis induction); assay type: cell-based; details: compared with control group NC; for secretion of glycerol: mouse adipose tissue, cultured 48-72 hours with peptide
Excerpt: Adipocytes store extra energy in the form of triglycerides in lipid droplets, and when energy is needed, the triglycerides are broken down into fatty acids and glycerols by enzymes, such as adipose triglyceride lipase, HSL, and monoglyceride lipase, to produce energy, or the triglycerides are used in cell signaling or lipid synthesis. The measurement of free glycerol release is for evaluating the lytic effect of the glycerides accumulated in fact cells.
In order to measure the lipolytic effect by the peptides of the present invention, the mouse adipose tissue was taken and cultured in 100-mm dish (DMEM) for one day. Thereafter, the adipose tissue was cut into equal weight, transferred onto 24-well plate, treated with the peptides, and cultured for 48-72 hours. Each 100 ul of the medium was collected according to the treatment period, and subjected to glycerol assay.

[3] = system: CGI-58; assay: CGI-58 RT-PCR; assay type: cell-based; details: intracellular
Description: (§1) Total RNA was extracted using Qiagen RNeasy kit. For synthesis of single-stranded DNA from RNA, […] of RNA, […] of random hexamer, and DEPC-treated water were added, followed by reaction for 5 minutes at 65° C. 5× first strand buffer, 0.1 M DTT, 10 mM of dNTP, and reverse transcriptase were added to reach a total volume of […], followed by reaction at 42° C. for 1 hour. After heating at 95° C. for 5 minutes again, 10 ml of distilled water was added to make a final volume, […], of cDNA.
(§2) PCR was conducted by mixing 3 ml of cDNA, 10 pmole of CGI 58 gene-specific primer, 10× Tag buffer, 10 mM dNTP, and i-Tag DNA synthetase. PCR conditions were: 94° C. for 30 seconds, 55-56° C. for 30 seconds, and 72° C. for 30 seconds. Cycle number genes were analyzed in the conditions in which the PCR results could be exponentially amplified. 5 ml of PCR product was obtained, electrophoresed on 1% agarose gel, and stained with ethidium bromide.

[4] = system: pHSL; assay: Immunohistochemical staining with anti-pHSL antibody (lipolysis induction); assay type: cell-based; details: mouse adipose tissue, 48-72 hours
Excerpt: In order to investigate a mechanism by which the peptides of the present invention stimulate the lysis of triglycerides to suppress the lipid accumulation in adipocytes, the effect of the peptides of the present invention on HSL gene expression was examined. HSL enzyme is known as a lipolytic enzyme that breaks down triglycerides into free fatty acids and glycerols when the HSL enzyme breaks down lipids in the adipose tissue.
The mouse adipose tissue was taken and cultured in 100-mm dish (DMEM) for one day. Thereafter, the adipose tissue was cut into equal weight, transferred onto 24-well plate, treated with the peptides, and cultured for 48-72 hours. Each tissue slice was subjected to immunohistochemical staining using anti-pHSL antibody, and photographed by a fluorescent microscope.

[5] = system: C57BL/6J mice fed with a high-fat diet; assay: Anti-diabetic efficacy evaluation (in vivo), blood glucose after oral glucose; parameters: blood glucose, individual animal / blood glucose, Mean: unit not given here; details: for blood glucose, Mean / blood glucose, individual animal: 60% fat diet mice; for blood glucose increase by glucose: high-fat diet mice, compared with the NC group
Excerpt: 6-week-old C57BL/6J mice as experimental animals were purchased from Central Lab. Animal Inc. (Seoul, Korea), and then were used for experiments after acclimatization with a normal diet for 1 week. A high-fat feed was used from Research Diets, inc. (#product D12492).
The experimental animals were divided into a total of four groups, and three mice for each group were raised for 12 weeks.
In addition, the experimental animals were divided into a total of […], and three mice for each group were raised for 12 weeks.
After the pre-treatment with a peptide for 30 minutes, glucose (60 mg/300 ul distilled water) were orally administered, and then the blood glucose lowering effect over time was examined. The results are shown in FIGS. 6a to 6b and tables 5 and 6.

[6] = system: adiponectin; assay: Adiponectin RT-PCR in insulin resistance conditions (TNF-α); assay type: cell-based; details: reduced by TNF-α treatment, peptide treatment 16 hours
Description: as §1, §2
(§3) After the insulin resistance conditions were configured by TNF-α treatment, the peptide treatment was conducted for 16 hours, followed by collection and then the resultant product was collected and the changes of respective factors were examined by RT-PCR. RT-PCR conditions are the same as in example 3.

[7] = system: GLUT4; assay: GLUT4 RT-PCR in insulin resistance conditions (TNF-α); assay type: cell-based; details: reduced by TNF-α treatment, peptide treatment 16 hours
Description: as §1, §2, §3

[8] = system: AMPK-α1; assay: AMPK-α1 RT-PCR in insulin resistance conditions (TNF-α); assay type: cell-based; details: reduced by TNF-α treatment, peptide treatment 16 hours
Description: as §1, §2, §3

[9] = system: mouse adipose tissue; assay: Histological analysis, H&E staining (lipolysis induction); assay type: cell-based; details: as the concentration of the peptide increased
Description: The mouse adipose tissue was taken and cultured in 100-mm dish (DMEM) for one day. Thereafter, the adipose tissue was cut into equal weight, transferred onto 24-well plate, treated with the peptides, and cultured for 48-72 hours. Each tissue slice was subjected to H&E staining. The photo files obtained from microscopic photographing were divided into compartments through Image J, and analyzed using a program that can compare the sizes of each compartment. Through this, the area of the total number of cells can be obtained, and the average area obtained by dividing the area by the total number of cells can also be obtained. The results may be expressed differently depending on the degree of staining. However, correction can be made by adjusting the threshold value in the beginning, and the results were obtained after the cells with relatively small areas from the comparison with the original file were removed.

[10] = system: IRS-1; assay: IRS-1 RT-PCR in insulin resistance conditions (TNF-α); assay type: cell-based; details: reduced by TNF-α treatment, peptide treatment 16 hours
Description: as §1, §2, §3

[11] = 0 min, IP 2 mg/ml 300 ul, Table 6
[12] = 0 min, oral 2 mg/ml 300 ul, Table 6
[13] = 10 min, IP 2 mg/ml 300 ul, Table 6
[14] = 10 min, oral 2 mg/ml 300 ul, Table 6
[15] = 40 min, IP 2 mg/ml 300 ul, Table 6
[16] = 40 min, oral 2 mg/ml 300 ul, Table 6
[17] = 80 min, IP 2 mg/ml 300 ul, Table 6
[18] = 80 min, oral 2 mg/ml 300 ul, Table 6
[19] = 140 min, IP 2 mg/ml 300 ul, Table 6
[20] = 140 min, oral 2 mg/ml 300 ul, Table 6
[21] = 200 min, IP 2 mg/ml 300 ul, Table 6
[22] = 200 min, oral 2 mg/ml 300 ul, Table 6
[23] = 0 min, oral 2 mg/ml 300 ul, Table 5
[24] = 30 min, oral 2 mg/ml 300 ul, Table 5
[25] = 60 min, oral 2 mg/ml 300 ul, Table 5
[26] = 90 min, oral 2 mg/ml 300 ul, Table 5
[27] = 120 min, oral 2 mg/ml 300 ul, Table 5

His-Glu-Thr-Phe-Glu (HETFE) [SEQ ID NO: 2]
degree of lipid accumulation in the cells [1]: reduced
increase of secretion of glycerol ([2]; high-concentration peptide treatment): 22%
secretion of glycerol [2]: increased
expression of the lipolysis factor CGI-58 [3]: increased
expression of hormone sensitive lipase (pHSL) [4]: increased
blood glucose, Mean [5, 11]: 155.00
blood glucose, individual animal [5, 11]: 145.00 and 165.00
blood glucose, Mean [5, 12]: 162
blood glucose, individual animal [5, 12]: 159.00 and 165.00
blood glucose, Mean [5, 13]: 197.00
blood glucose, individual animal [5, 13]: 203.00 and 190.00
blood glucose, Mean [5, 14]: 191
blood glucose, individual animal [5, 14]: 188.00 and 193.00
blood glucose, Mean [5, 15]: 179.00
blood glucose, individual animal [5, 15]: 162.00 and 195.00
blood glucose, Mean [5, 16]: 161
blood glucose, individual animal [5, 16]: 164.00 and 157.00
blood glucose, Mean [5, 17]: 164.00
blood glucose, individual animal [5, 17]: 170.00 and 158.00
blood glucose, Mean [5, 18]: 155
blood glucose, individual animal [5, 18]: 163.00 and 147.00
blood glucose, Mean [5, 19]: 123.00
blood glucose, individual animal [5, 19]: 130.00 and 115.00
blood glucose, Mean [5, 20]: 129
blood glucose, individual animal [5, 20]: 122.00 and 135.00
blood glucose, Mean [5, 21]: 112.00
blood glucose, individual animal [5, 21]: 129.00 and 94.00
blood glucose, Mean [5, 22]: 122
blood glucose, individual animal [5, 22]: 118.00 and 126.00
blood glucose increase by glucose [5]: reduced
expression of adiponectin [6]: again increased
expression of the glucose transporter GLUT4 [7]: again increased
expression of AMPK-α1 [8]: again increased

Lys-Glu-Arg-Lys-Ser (KERKS) [SEQ ID NO: 1]
degree of lipid accumulation in the cells [1]: reduced
secretion of glycerol [2]: increased
expression of the lipolysis factor CGI-58 [3]: increased
lipid area [9]: reduced
number of adipocytes [9]: increased
expression of hormone sensitive lipase (pHSL) [4]: increased
blood glucose, Mean [5, 23]: 134.67
blood glucose, individual animal [5, 23]: 145.00 and 165.00
blood glucose, Mean [5, 24]: 163.67
blood glucose, individual animal [5, 24]: 203.00 and 190.00
blood glucose, Mean [5, 25]: 142.00
blood glucose, individual animal [5, 25]: 162.00 and 195.00
blood glucose, Mean [5, 26]: 142.67
blood glucose, individual animal [5, 26]: 170.00 and 158.00
blood glucose, Mean [5, 27]: 125.67
blood glucose, individual animal [5, 27]: 130.00 and 115.00
blood glucose increase by glucose [5]: reduced
expression of adiponectin [6]: again increased
expression of the glucose transporter GLUT4 [7]: again increased
expression of the insulin receptor signaling protein IRS-1 [10]: again increased
expression of AMPK-α1 [8]: again increased
